Measurements taken from patent US11591341B2 (ALIGOS THERAPEUTICS, INC., priority 2019, dated 2023).

tested on: HBV; experiment: HBV-DNA Antiviral Assay Using HepG2.117 Cells (intracellular HBV DNA by qPCR); format: cell-based, hepatitis B virus (genotype D); conditions: HBV DNA inhibition, HepG2.117 cells, intracellular HBV DNA by qPCR (Table 4); read-out: EC50
In short: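 HepG2.117 cells (genotype D HBV, Tet-off) were induced by doxycycline withdrawal and treated for 3 days with 9 concentrations in 4-fold dilution, 2% DMSO final. Intracellular HBV DNA was measured by qPCR against a standard curve, with ATPlite viability read in parallel. EC50, EC90 and CC50 came from fits against the DMSO control.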

For `COc1ccc(-n2c(-c3ncccc3Cc3ccccc3)c3n(c2=O)CCN(C(=O)c2ccc(Br)c(Cl)c2)C3)cc1` [Example 308, 1-(3-benzyl-2-pyridyl)-7-(4-bromo-3-chloro-benzoyl)-2-(4-methoxyphenyl)-6,8-dihdyro-5H-imidazo[1,5-a]pyrazin-3-one], the EC50 was 500 to 5000 nM.

same assay, conditions: Hepatitis B virus, HepG2.117

`COc1ccc(-n2c(C(=O)N[C@H](C)c3ccc(Br)cc3)c3n(c2=O)CCN(C(=O)c2ccc(Br)c(Cl)c2)C3)cc1` (racemic) [Example 145, 7-(4-bromo-3-chloro-benzoyl)-2-(4-methoxyphenyl)-3-oxo-N-[rac-(1R)-1-(4-bromophenyl)ethyl]-6,8-dihydro-5H-imidazo[1,5-a]pyrazine-1-carboxamide] and `CC[C@@H](NC(=O)c1c2n(c(=O)n1-c1ccc(OC)cc1)CCN(C(=O)c1ccc(Br)c(Cl)c1)C2)c1ccccc1` (stereo in doubt) [Example 150, 7-(4-bromo-3-chloro-benzoyl)-2-(4-methoxyphenyl)-3-oxo-N-[rac-(1R)-1-phenylpropyl]-6,8-dihydro-5H-imidazo[1,5-a]pyrazine-1-carboxamide] fall in the same range of EC50: 100 to 500 nM for the first, 100 to 500 nM for the second.

`C[C@@H](NC(=O)c1c2n(c(=O)n1-c1ccc(OC3CC3)cc1)C[C@H](C)N(C(=O)c1ccc(Br)c(Cl)c1)C2)c1ccccc1` (mixture of isomers) [Example 332, (6SR)-7-(4-bromo-3-chloro-benzoyl)-2-[4-(cyclopropoxy)phenyl]-6-methyl-3-oxo-N-[(1R)-1-phenylethyl]-6,8-dihydro-5H-imidazo[1,5-a]pyrazine-1-carboxamide] and `C[C@@H](NC(=O)c1c2n(c(=O)n1-c1ccc(OC3CC3)cc1)C[C@H](C)N(C(=O)c1ccc(Br)c(Cl)c1)C2)c1ccccc1F` (mixture of isomers) [Example 322, (6SR)-7-(4-bromo-3-chloro-benzoyl)-2-[4-(cyclopropoxy)phenyl]-N-[(1R)-1-(2-fluorophenyl)ethyl]-6-methyl-3-oxo-6,8-dihydro-5H-imidazo[1,5-a]pyrazine-1-carboxamide] fall in the same range of EC50: 100 to 500 nM for the first, 100 to 500 nM for the second.

`COc1ccc(-n2c(C(=O)NCc3ccc(Cl)c(OC)c3)c3n(c2=O)CCN(C(=O)c2ccc(Cl)c(Cl)c2)C3)cc1` [Example 102, N-[(4-chloro-3-methoxy-phenyl)methyl]-7-(3,4-dichlorobenzoyl)-2-(4-methoxyphenyl)-3-oxo-6,8-dihydro-5H-imidazo[1,5-a]pyrazine-1-carboxamide] and `COc1ccc(-n2c(C(=O)NCc3ccc4c(c3)OCCO4)c3n(c2=O)CCN(C(=O)c2ccc(Cl)c(Cl)c2)C3)cc1` [Example 91, 7-(3,4-dichlorobenzoyl)-N-(2,3-dihydro-1,4-benzodioxin-6-ylmethyl)-2-(4-methoxyphenyl)-3-oxo-6,8-dihydro-5H-imidazo[1,5-a]pyrazine-1-carboxamide] fall in the same range of EC50: 500 to 5000 nM for the first, 500 to 5000 nM for the second.

Compared with `CC(C)Oc1ccc(-n2c(C(=O)NCc3ccccc3)c3n(c2=O)CCN(C(=O)/C=C/c2ccc(Cl)c(Cl)c2)C3)cc1` [Example 242, N-benzyl-7-[(E)-3-(3,4-dichlorophenyl)prop-2-enoyl]-2-(4-isopropoxyphenyl)-3-oxo-6,8-dihydro-5H-imidazo[1,5-a]pyrazine-1-carboxamide], `O=C(NCc1ccccc1)c1c2n(c(=O)n1-c1ccccc1)CCN(C(=O)c1ccc(Cl)c(Cl)c1)C2` [Example 34, N-benzyl-7-(3,4-dichlorobenzoyl)-3-oxo-2-phenyl-6,8-dihydro-5H-imidazo[1,5-a]pyrazine-1-carboxamide] is lower in EC50: > 5000 nM for the first, 500 to 5000 nM for the second. The second is the more potent here.

First: O=C(NCc1ccccc1)c1c2n(c(=O)n1-c1ccc3occc3c1)CCN(C(=O)c1ccc(Cl)c(Cl)c1)C2 [Example 120, 2-(benzofuran-5-yl)-N-benzyl-7-(3,4-dichlorobenzoyl)-3-oxo-6,8-dihydro-5H-imidazo[1,5-a]pyrazine-1-carboxamide]
Second: O=C(NCc1ccccc1)c1c2n(c(=O)n1-c1ccccn1)CCN(C(=O)c1ccc(Cl)c(Cl)c1)C2 [Example 78, N-benzyl-7-(3,4-dichlorobenzoyl)-3-oxo-2-(2-pyridyl)-6,8-dihydro-5H-imdiazo[1,5-a]pyrazine-1-carboxamide]
The EC50 of the first is lower: 500 to 5000 nM for the first, > 5000 nM for the second.

First: COc1ccc(-n2c(C(=O)NCc3ccccc3)c3n(c2=O)C[C@H](C2CC2)N(C(=O)c2ccc(Br)c(Cl)c2)C3)cc1 (racemic) [Example 279, rac-(6S)-N-benzyl-7-(4-bromo-3-chloro-benzoyl)-6-cyclopropyl-2-(4-methoxyphenyl)-3-oxo-6,8-dihydro-5H-imidazo[1,5-a]pyrazine-1-carboxamide]
Second: Cc1ccnn1-c1ccc(-n2c(C(=O)NCc3ccccc3)c3n(c2=O)CCN(C(=O)c2ccc(Br)c(Cl)c2)C3)cc1 [Example 456, N-benzyl-7-(4-bromo-3-chloro-benzoyl)-2-[4-(5-methylpyrazol-1-yl)phenyl]-3-oxo-6,8-dihydro-5H-imidazo[1,5-a]pyrazine-1-carboxamide]
The EC50 of the first is lower: 100 to 500 nM for the first, 500 to 5000 nM for the second.

`C[C@@H](NC(=O)c1c2n(c(=O)n1-c1ccc(OCC(F)(F)F)cc1)CCN(C(=O)c1ccc(Br)c(Cl)c1)C2)c1ccc(OCC(N)=O)cc1F` (stereo in doubt) [Example 319, 7-(4-bromo-3-chloro-benzoyl)-3-oxo-N-[rac-(1R)-1-[4-(2-amino-2-oxo-ethoxy)-2-fluoro-phenyl]ethyl]-2-[4-(2,2,2-trifluoroethoxy)phenyl]-6,8-dihydro-5H-imidazo[1,5-a]pyrazine-1-carboxamide] and `N#Cc1ccc(CNC(=O)c2c3n(c(=O)n2-c2ccc(OCC(F)(F)F)cc2)CCN(C(=O)c2ccc(Br)c(Cl)c2)C3)c(F)c1` [Example 287, 7-(4-bromo-3-chloro-benzoyl)-N-[(4-cyano-2-fluoro-phenyl)methyl]-3-oxo-2-[4-(2,2,2-trifluoroethoxy)phenyl]-6,8-dihydro-5H-imidazo[1,5-a]pyrazine-1-carboxamide] fall in the same range of EC50: 500 to 5000 nM for the first, 500 to 5000 nM for the second.

First: O=C(NCc1c(F)ccc2nccnc12)c1c2n(c(=O)n1-c1ccc(-n3cccn3)cc1)CCN(C(=O)c1ccc(Br)c(Cl)c1)C2 [Example 458, 7-(4-bromo-3-chloro-benzoyl)-N-[(6-fluoroquinoxalin-5-yl)methyl]-3-oxo-2-(4-pyrazol-1-ylphenyl)-6,8-dihydro-5H-imidazo[1,5-a]pyrazine-1-carboxamide]
Second: COc1ccc(CNC(=O)c2c3n(c(=O)n2-c2ccc(OCC(F)(F)F)cc2)CCN(C(=O)c2ccc(Br)c(Cl)c2)C3)c(-n2cccn2)c1 [Example 258, 7-(4-bromo-3-chloro-benzoyl)-N-[(4-methoxy-2-pyrazol-1-yl-phenyl)methyl]-3-oxo-2-[4-(2,2,2-trifluroethoxy)phenyl]-6,8-dihydro-5H-imidazo[1,5-a]pyrazine-1-carboxamide]
The EC50 of the first is higher: 100 to 500 nM for the first, < 100 nM for the second. The second is the more potent here.

`O=C(NCc1cccc2[nH]cnc12)c1c2n(c(=O)n1-c1ccc(OC3CC3)cc1)CCN(C(=O)c1ccc(Br)c(Cl)c1)C2` [Example 367, N-(1H-benzoimidazol-4-ylmethyl)-7-(4-bromo-3-chloro-benzoyl)-2-[4-(cyclopropoxy)phenyl]-3-oxo-6,8-dihydro-5H-imidazo[1,5-a]pyrazine-1-carboxamide] and `O=C(NCc1ccccc1-c1cocn1)c1c2n(c(=O)n1-c1ccc(OCC(F)(F)F)cc1)CCN(C(=O)c1ccc(Br)c(Cl)c1)C2` [Example 386, 7-(4-bromo-3-chloro-benzoyl)-N-[(2-oxazol-4-ylphenyl)methyl]-3-oxo-2-[4-(2,2,2-trifluoroethoxy)phenyl]-6,8-dihydro-5H-imidazo[1,5-a]pyrazine-1-carboxamide] fall in the same range of EC50: 100 to 500 nM for the first, 100 to 500 nM for the second.

Compared with `O=C(NCc1ccccc1)c1c2n(c(=O)n1-c1ccc3nonc3c1)CCN(C(=O)c1ccc(Br)c(Cl)c1)C2` [Example 389, 2-(2,1,3-benzoxadiazol-5-yl)-N-benzyl-7-(4-bromo-3-chloro-benzoyl)-3-oxo-6,8-dihydro-5H-imidazo[1,5-a]pyrazine-1-carboxamide], `CC(C)Oc1ccc(-n2c(C(=O)NCc3ccc4occc4c3)c3n(c2=O)CCN(C(=O)c2ccc(Br)c(Cl)c2)C3)cc1` [Example 220, N-(benzofuran-5-ylmethyl)-7-(4-bromo-3-chloro-benzoyl)-2-(4-isopropoxyphenyl)-3-oxo-6,8-dihydro-5H-imidazo[1,5-a]pyrazine-1-carboxamide] is higher in EC50: 500 to 5000 nM for the first, > 5000 nM for the second.

`CC1Cn2c(c(C(=O)N[C@@H](C)c3ccccc3F)n(-c3ccc(OC4CC4)cc3)c2=O)CN1C(=O)c1ccc(Br)c(Cl)c1` (mixture of isomers) [Example 334, (6SR)-7-(4-bromo-3-chloro-benzoyl)-2-[4-(cyclopropoxy)phenyl]-N-[(1S)-1-(2-fluorophenyl)ethyl]-6-methyl-3-oxo-6,8-dihydro-5H-imidazo[1,5-a]pyrazine-1-carboxamide] and `COc1ccc(CNC(=O)c2c3n(c(=O)n2-c2ccc(OC(C)C)cc2)CCN(C(=O)c2ccc(Br)c(Cl)c2)C3)c(OC)c1` [Example 228, 7-(4-bromo-3-chloro-benzoyl)-N-[(2,4-dimethoxypehnyl)methyl]-2-(4-isopropoxyphenyl)-3-oxo-6,8-dihydro-5H-imidazo[1,5-a]pyrazine-1-carboxamide] fall in the same range of EC50: 100 to 500 nM for the first, 100 to 500 nM for the second.

First: COC1CCC(n2c(C(=O)N[C@@H](C)c3ccccc3)c3n(c2=O)CCN(C(=O)c2ccc(Br)c(Cl)c2)C3)CC1 (mixture of isomers) [Example 247, 7-(4-bromo-3-chloro-benzoyl)-2-(4-methoxycyclohexyl)-3-oxo-N-[rac-(1S)-1-phenylethyl]-6,8-dihydro-5H-imidazo[1,5-a]pyrazine-1-carboxamide]
Second: C[C@@H]1Cn2c(c3n(c2=O)C[C@@H](F)CN(Cc2ccccc2)C3=O)CN1C(=O)c1ccc(Br)c(Cl)c1 (stereo in doubt) [Example 373, rac-(5R,11S)-13-benzyl-4-(4-bromo-3-chloro-benzoyl)-11-fluoro-5-methyl-4,7,9,13-tetrazatricyclo[7.5.0.0^2,7]tetradec-1-ene-8,14-dione]
The EC50 of the first is higher: > 5000 nM for the first, 100 to 500 nM for the second. The second is the more potent here.
